Several values for one entry are separate records, joined by “and”; a condition that tells them apart may be missing. Equal entries are not always repeated.
System: BDF1 mice, Adenocarcinoma 755 s.c., tumor weight T/C
Experiment: NCI In Vivo Anticancer Drug Screen. Data for tumor model Adenocarcinoma 755 (subcutaneous) in B6D2F1 (BDF1) mice
Conditions: endpoint: mean tumor weight, schedule: Q01DX011 (ip), higher = larger tumour
In short: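 Compound activity was tested in mice carrying transplanted tumors. Survival or tumor size was measured, and each value is the treated-group measurement divided by that of the vehicle-treated control group (T/C).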

O=P1(N(CCCl)CCCl)NCCCO1 (stereo not given)
T/C (dose: 6.25 mg/kg/injection, vehicle: saline): 87 % of control
T/C (dose: 7.13 mg/kg/injection, vehicle: carboxymethylcellulose (CMC)): 59 % of control
T/C (dose: 7.66 mg/kg/injection, vehicle: carboxymethylcellulose (CMC)): 92 % of control
T/C (dose: 10.22 mg/kg/injection, vehicle: carboxymethylcellulose (CMC)): 92 % of control
T/C (dose: 11.4 mg/kg/injection, vehicle: carboxymethylcellulose (CMC)): 46 % of control
T/C (dose: 12.25 mg/kg/injection, vehicle: carboxymethylcellulose (CMC)): 52 % of control
T/C (dose: 12.5 mg/kg/injection, vehicle: carboxymethylcellulose (CMC)): 57 % of control
T/C (dose: 12.5 mg/kg/injection, vehicle: saline): 36 % of control and 60 % of control
T/C (dose: 14.25 mg/kg/injection, vehicle: carboxymethylcellulose (CMC)): 22 % of control and 29 % of control
T/C (dose: 19.0 mg/kg/injection, vehicle: carboxymethylcellulose (CMC)): 22 % of control
T/C (dose: 20.43 mg/kg/injection, vehicle: carboxymethylcellulose (CMC)): 66 % of control
T/C (dose: 25.0 mg/kg/injection, vehicle: carboxymethylcellulose (CMC)): 8 % of control
T/C (dose: 25.0 mg/kg/injection, vehicle: saline): 30 % of control and 55 % of control
T/C (dose: 28.5 mg/kg/injection, vehicle: carboxymethylcellulose (CMC)): 4 % of control and 15 % of control
T/C (dose: 30.65 mg/kg/injection, vehicle: carboxymethylcellulose (CMC)): 6 % of control and 29 % of control
T/C (dose: 50.0 mg/kg/injection, vehicle: saline): 8 % of control and 17 % of control
T/C (dose: 57.0 mg/kg/injection, vehicle: carboxymethylcellulose (CMC)): 3 % of control
T/C (dose: 61.3 mg/kg/injection, vehicle: carboxymethylcellulose (CMC)): 5 % of control

Cc1n[nH]c(=O)[nH]c1=O
T/C (dose: 400.0 mg/kg/injection, vehicle: other): 59 % of control
T/C (dose: 800.0 mg/kg/injection, vehicle: other): 72 % of control

CCC1=C(c2cc(Cl)c3ccccc3c2OCC(=O)O)OC(CC)(C(=O)c2cc(Cl)c3ccccc3c2OCC(=O)O)CC1 (stereo not given)
T/C (dose: 30.0 mg/kg/injection, vehicle: alkali diluted with saline): 152 % of control

COC(=O)C1C2CC3c4[nH]c5cc(OC)ccc5c4CCN3CC2CC(OC(=O)c2cc(OC)c(OC)c(OC)c2)C1OC (stereo not given)
T/C (dose: 0.5 mg/kg/injection, vehicle: saline): 109 % of control
T/C (dose: 2.0 mg/kg/injection, vehicle: saline): 101 % of control

Cc1ccc2c(c1)CCCN2C(=O)CCCl
T/C (dose: 25.0 mg/kg/injection, vehicle: methylcellulose (MC)): 101 % of control
T/C (dose: 75.0 mg/kg/injection, vehicle: methylcellulose (MC)): 40 % of control
T/C (dose: 225.0 mg/kg/injection, vehicle: methylcellulose (MC)): 60 % of control

CC1CN(Cc2ccco2)C(=S)N(c2ccccc2)C1=O (stereo not given)
T/C (dose: 15.0 mg/kg/injection, vehicle: methylcellulose (MC)): 81 % of control
T/C (dose: 31.0 mg/kg/injection, vehicle: methylcellulose (MC)): 84 % of control
T/C (dose: 62.0 mg/kg/injection, vehicle: methylcellulose (MC)): 99 % of control
T/C (dose: 125.0 mg/kg/injection, vehicle: methylcellulose (MC)): 84 % of control
T/C (dose: 250.0 mg/kg/injection, vehicle: methylcellulose (MC)): 98 % of control

CN(C)c1ncnc2c1ncn2C1CCCCO1 (stereo not given)
T/C (dose: 11.0 mg/kg/injection, vehicle: methylcellulose (MC)): 70 % of control
T/C (dose: 22.5 mg/kg/injection, vehicle: methylcellulose (MC)): 47 % of control
T/C (dose: 45.0 mg/kg/injection, vehicle: methylcellulose (MC)): 47 % of control
T/C (dose: 90.0 mg/kg/injection, vehicle: methylcellulose (MC)): 20 % of control
